Article PMC9151520 (Archives of Toxicology, 2022)
Where “and” joins values, the source holds several entries; their conditions need not be identical. Equal values may be shown once. Where a name gives a salt, the structure may show the parent alone. Read-outs that look alike come from different tables or passages of the source.

Assays:
[1] = test system: p53 signaling (p53RE-bla HCT-116 cells); test: cells; type: cell-based
[2] = test system: p53 signaling (p53RE-bla HCT-116 cells)
[3] = test system: p53 signaling (p53RE-bla HCT-116 cells); remark: listed apart in the source
[4] = test system: p53RE-bla HCT-116 cells
[5] = Homo sapiens, HCT-116, read-out: p53 activation EC50, primary screening
[6] = Homo sapiens, HCT-116, read-out: p53 activation efficacy, primary screening
[7] = read-out: EC50, p53 activation, cherry pick confirmation
[8] = read-out: EC50, p53 activation, primary screening
[9] = read-out: p53 activation EC50, cherry pick confirmation
[10] = read-out: p53 activation EC50, primary screening
[11] = Homo sapiens, HCT-116, read-out: EC50, p53 activation, primary screening
[12] = Homo sapiens, HCT-116, read-out: Efficacy, p53 activation, primary screening

Molecule	EC50 [1, 5]	Emax [1, 6]	p53 activation EC50, cherry pick confirmation [2]	p53 activation EC50, primary screening [2]	p53 activation efficacy, cherry pick confirmation [2]	p53 activation efficacy, primary screening [2]	p53 activation EC50, cherry pick confirmation [3]	p53 activation EC50, primary screening [3]	p53 activation efficacy, cherry pick confirmation [3]	p53 activation efficacy, primary screening [3]	Viability EC50, cherry pick confirmation [4]	Viability EC50, primary screening [4]	Viability efficacy, cherry pick confirmation [4]	Viability efficacy, primary screening [4]	Efficacy, p53 activation, cherry pick confirmation [1]	EC50, p53 activation, cherry pick confirmation [2]	EC50, viability, cherry pick confirmation [4]	EC50, viability, primary screening [4]	p53 activation EC50, cherry pick confirmation [1]	p53 activation efficacy, cherry pick confirmation [1]	other results
C#C[C@]1(O)CC[C@H]2[C@@H]3CCc4cc(O)ccc4[C@H]3CC[C@@]21C [17alpha-Ethinylestradiol]	11.9 µM	38.5%	inactive	inactive	inactive	inactive	inactive	inactive	inactive	inactive	inactive	inactive	inactive	inactive							EC50 ([1]; Homo sapiens, HCT-116, read-out: p53 activation EC50, cherry pick confirmation): 3.62 µM; Emax ([1]; Homo sapiens, HCT-116, read-out: p53 activation efficacy, cherry pick confirmation): 50.6%
COC(=O)c1nc(Cl)c(Cl)nc1N															118.088	inactive	inactive	inactive			Efficacy, p53 activation, primary screening [1]: 51.0133; EC50 [1, 7]: 24 µM; EC50 [1, 8]: 21.5 µM; EC50, p53 activation, primary screening [2]: inactive; Efficacy, p53 activation, cherry pick confirmation [2]: inactive; EC50, p53 activation, cherry pick confirmation [3]: inactive; Efficacy, p53 activation, cherry pick confirmation [3]: inactive; EC50 [3, 8]: 22.4 µM; Efficacy, viability, cherry pick confirmation [4]: inactive; Efficacy, viability, primary screening [4]: inactive
CN(C)c1ccc(C(=O)c2ccc(N(C)C)cc2)cc1 [Michler's ketone]	2.8 µM	37.9%	inactive	inactive	inactive	inactive	inactive	inactive	inactive	inactive	inactive	inactive	inactive	inactive					inactive	inactive	
CCOP(=O)(OCC)Oc1ccc([N+](=O)[O-])cc1 [Paraoxon]			inactive		inactive		inactive		inactive		inactive	inactive	inactive	inactive					inactive	inactive	p53 activation EC50, primary screening [1]: inactive; p53 activation efficacy, primary screening [1]: inactive
Cc1cc(=O)oc2cc(N(C)C)ccc12 [7-(Dimethylamino)-4-methylcoumarin]			inactive		inactive		inactive		inactive		inactive	inactive	inactive	inactive						79.8427	p53 activation efficacy, primary screening [1]: 78.774; EC50 [1, 9]: 29.5 µM; EC50 [1, 10]: 35.2 µM
O=C(O)Cc1ccccc1Nc1c(Cl)cccc1Cl [Diclofenac sodium]															inactive	inactive	inactive	inactive			EC50, p53 activation, cherry pick confirmation [1]: inactive; EC50 [1, 11]: 51.3 µM; Emax [1, 12]: 38.2%; EC50, p53 activation, primary screening [2]: inactive; Efficacy, p53 activation, cherry pick confirmation [2]: inactive; Efficacy, p53 activation, primary screening [2]: inactive; EC50, p53 activation, cherry pick confirmation [3]: inactive; EC50, p53 activation, primary screening [3]: inactive; Efficacy, p53 activation, cherry pick confirmation [3]: inactive; Efficacy, p53 activation, primary screening [3]: inactive; Efficacy, viability, cherry pick confirmation [4]: inactive; Efficacy, viability, primary screening [4]: inactive
COC(=O)Nc1nc2ccc(Sc3ccccc3)cc2[nH]1 [Fenbendazole]															inactive	inactive	inactive	inactive			EC50, p53 activation, cherry pick confirmation [1]: inactive; EC50 [1, 11]: 0.35 µM; Emax [1, 12]: 71%; EC50, p53 activation, primary screening [2]: inactive; Efficacy, p53 activation, cherry pick confirmation [2]: inactive; Efficacy, p53 activation, primary screening [2]: inactive; EC50, p53 activation, cherry pick confirmation [3]: inactive; EC50, p53 activation, primary screening [3]: inactive; Efficacy, p53 activation, cherry pick confirmation [3]: inactive; Efficacy, p53 activation, primary screening [3]: inactive; Efficacy, viability, cherry pick confirmation [4]: inactive; Efficacy, viability, primary screening [4]: inactive
CN(C)c1ccc(C(=N)c2ccc(N(C)C)cc2)cc1 [Auramine hydrochloride]	3.94 µM	37.6%	inactive	inactive	inactive	inactive	inactive	inactive	inactive	inactive	inactive	inactive	inactive	inactive					inactive	inactive	
Acriflavine hydrochloride			inactive	inactive	inactive	inactive	inactive	inactive	inactive	inactive	inactive	inactive	inactive	inactive						281.114	p53 activation efficacy, primary screening [1]: 193.527; EC50 [1, 9]: 2.46 µM; EC50 [1, 10]: 5.41 µM
C[C@H]1CCCC(=O)CCC/C=C/c2cc(O)cc(O)c2C(=O)O1 [Zearalenone]	16.8 µM	49.2%	inactive	inactive	inactive	inactive	inactive	inactive	inactive	inactive	inactive	inactive	inactive	inactive					inactive	inactive	
COP(=O)(OC)Oc1ccc([N+](=O)[O-])cc1 [Methylparaoxon]															inactive	inactive	inactive	inactive			EC50, p53 activation, cherry pick confirmation [1]: inactive; EC50, p53 activation, primary screening [1]: inactive; Efficacy, p53 activation, primary screening [1]: inactive; EC50 [3]: 20.1 µM; EC50 [3, 7]: 20 µM; Efficacy, viability, cherry pick confirmation [4]: inactive; Efficacy, viability, primary screening [4]: inactive
CN1CCC(Nc2ncc3ncnc(Nc4ccc(F)c(Cl)c4)c3n2)CC1.Cl.Cl [Falnidamol dihydrochloride]																					EC50 ([1]; read-out: p53 activation EC50, No MS): 16.7 µM and 12.9 µM; p53 activation EC50, HLM [2]: inactive; EC50 ([2]; read-out: p53 activation EC50, HLM): 14.2 µM; EC50 ([3]; read-out: p53 activation EC50, RLM): 17.2 µM and 8.9 µM; Viability EC50, HLM [4]: inactive; Viability EC50, No MS [4]: inactive; Viability EC50, RLM [4]: inactive; Viability Efficacy, HLM [4]: inactive; Viability Efficacy, No MS [4]: inactive; Viability Efficacy, RLM [4]: inactive
CC/C(=C(/CC)c1ccc(O)cc1)c1ccc(O)cc1 [Diethylstilbestrol]		42.5%	inactive	inactive	inactive	inactive	inactive	inactive	inactive	inactive	inactive	inactive	inactive						inactive	inactive	
